Source: PubChem BioAssay AID1259407 (Chemical Carcinogenesis Research Information System (CCRIS), 2018)
Activity calls are given as the source filed them. No rule for the calls is given here.

Test system: CCRIS mutagenicity, Ames/micronucleus/aberration tests
Test: CCRIS mutagenicity studies
[1] = Test System: AMES SALMONELLA TYPHIMURIUM, Strain/Indicator: TA98, Metabolic Activation: NONE, Method: STANDARD PLATE
[2] = Test System: AMES SALMONELLA TYPHIMURIUM, Strain/Indicator: TA98, Metabolic Activation: RAT, LIVER, S-9, AROCLOR 1254, Method: STANDARD PLATE
[3] = Test System: AMES SALMONELLA TYPHIMURIUM, Strain/Indicator: TA100, Metabolic Activation: NONE, Method: STANDARD PLATE
[4] = Test System: AMES SALMONELLA TYPHIMURIUM, Strain/Indicator: TA100, Metabolic Activation: RAT, LIVER, S-9, AROCLOR 1254, Method: STANDARD PLATE
[5] = Test System: AMES SALMONELLA TYPHIMURIUM, Strain/Indicator: TA98, Metabolic Activation: NONE, Method: PREINCUBATION
[6] = Test System: AMES SALMONELLA TYPHIMURIUM, Strain/Indicator: TA100, Metabolic Activation: NONE, Method: PREINCUBATION

## C=CC(=O)OCCCCOC(=O)C=C
[1]
  mutagenic call: inactive; negative
[2]
  mutagenic call: inactive; negative
Test System: AMES SALMONELLA TYPHIMURIUM, Strain/Indicator: TA98, Metabolic Activation: RAT, LIVER, S-9, SODIUM PHENOBARBITAL, Method: STANDARD PLATE
  mutagenic call: inactive; negative
[3]
  mutagenic call: inactive; negative
[4]
  mutagenic call: inactive; negative
Test System: AMES SALMONELLA TYPHIMURIUM, Strain/Indicator: TA100, Metabolic Activation: RAT, LIVER, S-9, SODIUM PHENOBARBITAL, Method: STANDARD PLATE
  mutagenic call: inactive; negative
Test System: AMES SALMONELLA TYPHIMURIUM, Strain/Indicator: TA1535, Metabolic Activation: NONE, Method: STANDARD PLATE
  mutagenic call: inactive; negative
Test System: AMES SALMONELLA TYPHIMURIUM, Strain/Indicator: TA1535, Metabolic Activation: RAT, LIVER, S-9, AROCLOR 1254, Method: STANDARD PLATE
  mutagenic call: inactive; negative
Test System: AMES SALMONELLA TYPHIMURIUM, Strain/Indicator: TA1535, Metabolic Activation: RAT, LIVER, S-9, SODIUM PHENOBARBITAL, Method: STANDARD PLATE
  mutagenic call: inactive; negative
Test System: AMES SALMONELLA TYPHIMURIUM, Strain/Indicator: TA1537, Metabolic Activation: NONE, Method: STANDARD PLATE
  mutagenic call: inactive; negative
Test System: AMES SALMONELLA TYPHIMURIUM, Strain/Indicator: TA1537, Metabolic Activation: RAT, LIVER, S-9, AROCLOR 1254, Method: STANDARD PLATE
  mutagenic call: inactive; negative
Test System: AMES SALMONELLA TYPHIMURIUM, Strain/Indicator: TA1537, Metabolic Activation: RAT, LIVER, S-9, SODIUM PHENOBARBITAL, Method: STANDARD PLATE
  mutagenic call: inactive; negative
Test System: AMES SALMONELLA TYPHIMURIUM, Strain/Indicator: TA1538, Metabolic Activation: NONE, Method: STANDARD PLATE
  mutagenic call: inactive; negative
Test System: AMES SALMONELLA TYPHIMURIUM, Strain/Indicator: TA1538, Metabolic Activation: RAT, LIVER, S-9, AROCLOR 1254, Method: STANDARD PLATE
  mutagenic call: inactive; negative
Test System: AMES SALMONELLA TYPHIMURIUM, Strain/Indicator: TA1538, Metabolic Activation: RAT, LIVER, S-9, SODIUM PHENOBARBITAL, Method: STANDARD PLATE
  mutagenic call: inactive; negative

## Cc1cccc2cc3c4c(cccc4c12)-c1ccccc1-3
Test System: AMES SALMONELLA TYPHIMURIUM, Strain/Indicator: TA100, Metabolic Activation: RAT, LIVER, S-9, AROCLOR 1254
  mutagenic call: active; positive

## O=Cc1cccc(Cl)c1
[5]
  mutagenic call: inactive; negative
Test System: AMES SALMONELLA TYPHIMURIUM, Strain/Indicator: TA98, Metabolic Activation: RAT LIVER S-9, PCB, Method: PREINCUBATION
  mutagenic call: inactive; negative
[6]
  mutagenic call: inactive; negative
Test System: AMES SALMONELLA TYPHIMURIUM, Strain/Indicator: TA100, Metabolic Activation: RAT LIVER S-9, PCB, Method: PREINCUBATION
  mutagenic call: inactive; negative
Test System: AMES SALMONELLA TYPHIMURIUM, Strain/Indicator: TA104, Metabolic Activation: NONE, Method: PREINCUBATION
  mutagenic call: inactive; negative
Test System: AMES SALMONELLA TYPHIMURIUM, Strain/Indicator: TA104, Metabolic Activation: RAT LIVER S-9, PCB, Method: PREINCUBATION
  mutagenic call: inactive; negative
Test System: E.COLI, Strain/Indicator: WP2 UVRA, Metabolic Activation: NONE, Method: PREINCUBATION
  mutagenic call: inactive; negative
Test System: E.COLI, Strain/Indicator: WP2 UVRA, Metabolic Activation: RAT LIVER S-9, PCB, Method: PREINCUBATION
  mutagenic call: inactive; negative

## CC(=O)OC1Cc2cc3cccc4ccc5ccc1c2c5c43 (centres undefined)
[1]
  mutagenic call: active; positive
[3]
  mutagenic call: active; positive

## CC1=CC(=O)c2nc(C)c3c([nH]c4ccccc43)c2C1=O
Test System: AMES SALMONELLA TYPHIMURIUM, Strain/Indicator: TA97, Metabolic Activation: NONE, Method: STANDARD PLATE
  mutagenic call: active; positive
Test System: AMES SALMONELLA TYPHIMURIUM, Strain/Indicator: TA97, Metabolic Activation: RAT, LIVER, S-9, AROCLOR 1254, Method: STANDARD PLATE
  mutagenic call: active; positive
[1]
  mutagenic call: active; positive
[2]
  mutagenic call: active; positive
[3]
  mutagenic call: active; positive
[4]
  mutagenic call: inactive; negative
Test System: AMES SALMONELLA TYPHIMURIUM, Strain/Indicator: TA102, Metabolic Activation: NONE, Method: STANDARD PLATE
  mutagenic call: inactive; negative
Test System: AMES SALMONELLA TYPHIMURIUM, Strain/Indicator: TA102, Metabolic Activation: RAT, LIVER, S-9, AROCLOR 1254, Method: STANDARD PLATE
  mutagenic call: inactive; negative

## O=[N+]([O-])C(Cl)(Br)Br
Test System: Ames Salmonella typhimurium, Strain/Indicator: RSJ100, Metabolic Activation: None, Method: Standard Plate
  mutagenic call: inactive; negative
Test System: Ames Salmonella typhimurium, Strain/Indicator: RSJ100, Metabolic Activation: Rat, Liver, S-9, Aroclor, Method: Standard Plate
  mutagenic call: inactive; negative
Test System: Ames Salmonella typhimurium, Strain/Indicator: TA98, Metabolic Activation: None, Method: Standard Plate
  mutagenic call: inactive; negative
Test System: Ames Salmonella typhimurium, Strain/Indicator: TA98, Metabolic Activation: Rat, Liver, S-9, Aroclor, Method: Standard Plate
  mutagenic call: inactive; negative
Test System: Ames Salmonella typhimurium, Strain/Indicator: TA100, Metabolic Activation: None, Method: Standard Plate
  mutagenic call: inactive; negative
Test System: Ames Salmonella typhimurium, Strain/Indicator: TA100, Metabolic Activation: Rat, Liver, S-9, Aroclor, Method: Standard Plate
  mutagenic call: inactive; negative
Test System: Ames Salmonella typhimurium, Strain/Indicator: TA104, Metabolic Activation: None, Method: Standard Plate
  mutagenic call: inactive; negative
Test System: Ames Salmonella typhimurium, Strain/Indicator: TA104, Metabolic Activation: Rat, Liver, S-9, Aroclor, Method: Standard Plate
  mutagenic call: inactive; negative
Test System: Ames Salmonella typhimurium, Strain/Indicator: TPT100, Metabolic Activation: None, Method: Standard Plate
  mutagenic call: inactive; negative

## CNC(=C[N+](=O)[O-])NCCSCc1ccc(CN(C)C)o1
Test System: AMES SALMONELLA TYPHIMURIUM, Strain/Indicator: TA92, Metabolic Activation: NONE, Method: PREINCUBATION
  mutagenic call: inactive; negative
Test System: AMES SALMONELLA TYPHIMURIUM, Strain/Indicator: TA92, Metabolic Activation: RAT, LIVER, S-9, PHENOBARBITAL AND 5,6-BENZOFLAVONE, Method: PREINCUBATION
  mutagenic call: inactive; negative
Test System: AMES SALMONELLA TYPHIMURIUM, Strain/Indicator: TA94, Metabolic Activation: NONE, Method: PREINCUBATION
  mutagenic call: inactive; negative
Test System: AMES SALMONELLA TYPHIMURIUM, Strain/Indicator: TA94, Metabolic Activation: RAT, LIVER, S-9, PHENOBARBITAL AND 5,6-BENZOFLAVONE, Method: PREINCUBATION
  mutagenic call: inactive; negative
[5]
  mutagenic call: inactive; negative
Test System: AMES SALMONELLA TYPHIMURIUM, Strain/Indicator: TA98, Metabolic Activation: RAT, LIVER, S-9, PHENOBARBITAL AND 5,6-BENZOFLAVONE, Method: PREINCUBATION
  mutagenic call: inactive; negative
[6]
  mutagenic call: inactive; negative
Test System: AMES SALMONELLA TYPHIMURIUM, Strain/Indicator: TA100, Metabolic Activation: RAT, LIVER, S-9, PHENOBARBITAL AND 5,6-BENZOFLAVONE, Method: PREINCUBATION
  mutagenic call: inactive; negative
Test System: AMES SALMONELLA TYPHIMURIUM, Strain/Indicator: TA1535, Metabolic Activation: NONE, Method: PREINCUBATION
  mutagenic call: inactive; negative
Test System: AMES SALMONELLA TYPHIMURIUM, Strain/Indicator: TA1535, Metabolic Activation: RAT, LIVER, S-9, PHENOBARBITAL AND 5,6-BENZOFLAVONE, Method: PREINCUBATION
  mutagenic call: inactive; negative
Test System: AMES SALMONELLA TYPHIMURIUM, Strain/Indicator: TA1537, Metabolic Activation: NONE, Method: PREINCUBATION
  mutagenic call: inactive; negative
Test System: AMES SALMONELLA TYPHIMURIUM, Strain/Indicator: TA1537, Metabolic Activation: RAT, LIVER, S-9, PHENOBARBITAL AND 5,6-BENZOFLAVONE, Method: PREINCUBATION
  mutagenic call: inactive; negative
Test System: AMES SALMONELLA TYPHIMURIUM, Strain/Indicator: TA1538, Metabolic Activation: NONE, Method: PREINCUBATION
  mutagenic call: inactive; negative
Test System: AMES SALMONELLA TYPHIMURIUM, Strain/Indicator: TA1538, Metabolic Activation: RAT, LIVER, S-9, PHENOBARBITAL AND 5,6-BENZOFLAVONE, Method: PREINCUBATION
  mutagenic call: inactive; negative
Test System: E. COLI, Strain/Indicator: WP2 UVRA, Metabolic Activation: NONE, Method: PREINCUBATION
  mutagenic call: inactive; negative
Test System: E. COLI, Strain/Indicator: WP2 UVRA, Metabolic Activation: RAT, LIVER, S-9, PHENOBARBITAL AND 5,6-BENZOFLAVONE, Method: PREINCUBATION
  mutagenic call: inactive; negative
